What is called MIC is the least concentration at which growth counts as inhibited. One may read the ED50 as the dose at which the effect has come halfway, by size or by number of responders.

Structures are written as SMILES. ≈ marks a conversion by molar mass, not a printed value. Read-outs that look alike come from different tables or passages of the source. Some results are limits rather than exact numbers.

The subject of one data set is A. niger. The experiment in a line: In vitro antifungal activity (minimum inhibitory concentration), A. niger. Type of data set: cell-based. The conditions noted are these: Aspergillus niger, 48 h at 37° C. The method, then:
(§1) The compounds of the present invention were evaluated in vitro for their antifungal activity and were assessed based on minimum inhibitory concentration of the test compound, i.e. the concentration of the test compound at which growth of particular organism fails to occur. […] The microorganisms used in this test include Candida albicans, C. tropicalis, C. kefyr, C. krusei, C. guilliermondii, C. glabrata, Cryptococcus neoformans, Aspergillus niger and A. fumigatus.

Another data set concerns C. glabrata. The experiment in a line: In vitro antifungal activity (minimum inhibitory concentration), C. glabrata. The data set is classed as cell-based. The settings on record: Nakaseomyces glabratus, 48 h at 37° C. The method, then:
as §1

The test system of the next data set is C. tropicalis. The data set is described as follows: In vitro antifungal activity (minimum inhibitory concentration), C. tropicalis. Type of data set: cell-based. The settings on record: Candida tropicalis, 48 h at 37° C. The method, then:
as §1

Another data set has as its system C. krusei. The data set is described as follows: In vitro antifungal activity (minimum inhibitory concentration), C. krusei. The data set is classed as cell-based. The conditions noted are these: Pichia kudriavzevii, 48 h at 37° C. The method, then: as §1
The test system of the next data set is A. fumigatus. The experiment in a line: In vivo therapeutic efficacy, A. fumigatus systemic infection in mice. The settings on record: Aspergillus fumigatus, oral, i.v. and s.c. routes, survival vs control, read-out: Therapeutic efficacy (ED50) in mice systemic infections. The method, then: (§2) Certain selected compounds were evaluated in-vivo for their antifungal efficacy. Series of doses of test compounds were administered by oral, i.v and s.c. routes to infected mice, i.e mice that are inoculated with a strain of Candida albicans or Aspergillus fumigatus. Efficacy of test compound was determined based on survival of treated mice compared to control. The in vivo efficacy was assessed based on ED50 of the test compound. The following table provides ED50 of certain compounds for systemic infections of C. albicans and A. fumigatus in mice models.

A further data set has as its system Candida albicans. The experiment in a line: In vitro antifungal activity (minimum inhibitory concentration), Candida albicans. Type of data set: cell-based. The conditions noted are these: 48 h at 37° C. The method, then: as §1
Another data set deals with Saccheromyces cerevisiae. The experiment in a line: In vitro antifungal activity (minimum inhibitory concentration), Saccheromyces cerevisiae. The data set is classed as cell-based.
The next data set has as its system Aspergillus fumigatus. The data set is described as follows: In vitro antifungal activity (minimum inhibitory concentration), Aspergillus fumigatus. The data set is classed as cell-based. The conditions noted are these: 48 h at 37° C. The method, then:
as §1

Another data set has as its system C. albicans. The data set is described as follows: In vivo therapeutic efficacy, C. albicans systemic infection in mice. The settings on record: Candida albicans, oral, i.v. and s.c. routes, survival vs control, read-out: Therapeutic efficacy (ED50) in mice systemic infections. The method, then: as §2
The subject of another data set is Cryptococcus neoformans. The experiment in a line: In vitro antifungal activity (minimum inhibitory concentration), Cryptococcus neoformans. The data set is classed as cell-based. The conditions noted are these: 48 h at 37° C. The method, then: as §1
Another data set has as its system C. guilliermondii. The data set is described as follows: In vitro antifungal activity (minimum inhibitory concentration), C. guilliermondii. The data set is classed as cell-based. The settings on record: Meyerozyma guilliermondii, 48 h at 37° C. The method, then: as §1
The next data set concerns C. kefyr. The data set is described as follows: In vitro antifungal activity (minimum inhibitory concentration), C. kefyr. Type of data set: cell-based. The settings on record: Kluyveromyces marxianus, 48 h at 37° C. The method, then:
as §1

For data set [1] the following is noted: background; cited from earlier work.
For data set [2] the following is noted: background; cited from earlier work. The source holds these as a separate data set.
The next data set has as its system filamentous fungi. The settings on record: background; cited from earlier work.
Where [3] appears, read: Saccheromyces cerevisiae, 48 h at 37° C., read-out: MIC.

On to `C[C@@H](N1CCN(c2ccc(-n3cnn(Cc4ccc(F)cc4F)c3=O)cc2)CC1)[C@](O)(Cn1cncn1)c1ccc(F)cc1F` [Example 46], for which the minimal inhibitory concentration (MIC) against A. niger is 0.09 µg/mL (≈ 0.145 µM); in the data set on C. glabrata, 0.39 µg/mL (≈ 0.626 µM); against C. tropicalis, 0.048 µg/mL (≈ 0.0771 µM); in the data set on C. krusei, 0.19 µg/mL (≈ 0.305 µM); with Candida albicans, 0.048 µg/mL (≈ 0.0771 µM); with Saccheromyces cerevisiae (setting [3]), 0.09 µg/mL (≈ 0.145 µM). Besides, the MIC against Aspergillus fumigatus, against Cryptococcus neoformans, with C. guilliermondii and against C. kefyr was 0.048 µg/mL (≈ 0.0771 µM) throughout. Moreover, the ED50 with A. fumigatus is greater than 45 mg/kg; in the data set with C. albicans, 56 mg/kg.

For the molecule `CCC(CC)n1ncn(-c2ccc(N3CCN([C@H](C)[C@](O)(Cn4cncn4)c4ccc(F)cc4F)CC3)cc2)c1=O` [Example 36], the MIC with A. niger was 0.78 µg/mL (≈ 1.38 µM); against C. glabrata, 0.09 µg/mL (≈ 0.159 µM); against C. tropicalis it was 0.09 µg/mL (≈ 0.159 µM); against C. krusei it was 0.09 µg/mL (≈ 0.159 µM); in the data set on Candida albicans, 0.09 µg/mL (≈ 0.159 µM); in the data set with Saccheromyces cerevisiae (setting [3]), 0.19 µg/mL (≈ 0.335 µM). Further, the MIC in the data set on Aspergillus fumigatus was 0.39 µg/mL (≈ 0.688 µM); in the data set on Cryptococcus neoformans, 0.048 µg/mL (≈ 0.0847 µM); against C. guilliermondii, 0.048 µg/mL (≈ 0.0847 µM); against C. kefyr, 0.048 µg/mL (≈ 0.0847 µM). Moreover, the figures for the ED50 in the data set on A. fumigatus and in the data set on C. albicans were greater than 45 mg/kg and 8.01 mg/kg, respectively.

With `CC(O)Cn1ncn(-c2ccc(N3CCN([C@H](C)[C@](O)(Cn4cncn4)c4ccc(F)cc4F)CC3)cc2)c1=O` (stereo partly drawn) [Example 42, (2R,3R)-2-(2,4-Difluorophenyl)-3-[4-{4-[2-(2-hydroxypropyl)-2H-1,2,4-triazol-3-one-4-yl]phenyl}piperazin-1-yl]-1-(1H-1,2,4-triazol-1-yl)butan-2-ol], the MIC came out at 3.12 µg/mL (≈ 5.63 µM) with A. niger; 12.5 µg/mL (≈ 22.5 µM) in the data set on C. glabrata; 0.09 µg/mL (≈ 0.162 µM) in the data set with C. tropicalis; 1.56 µg/mL (≈ 2.81 µM) against C. krusei; 0.09 µg/mL (≈ 0.162 µM) in the data set with Candida albicans; 0.39 µg/mL (≈ 0.703 µM) in the data set on Saccheromyces cerevisiae (setting [3]). The MIC was determined as 0.39 µg/mL (≈ 0.703 µM) with Aspergillus fumigatus, 0.19 µg/mL (≈ 0.343 µM) against Cryptococcus neoformans, 0.09 µg/mL (≈ 0.162 µM) in the data set with C. guilliermondii and 0.048 µg/mL (≈ 0.0865 µM) with C. kefyr. Besides, the values for the ED50 in the data set with A. fumigatus and in the data set on C. albicans were 71.1 mg/kg and greater than 90 mg/kg, respectively.

Take `CCC(C)n1ncn(-c2ccc(N3CCN(c4ccc(OCC5COC(Cn6cncn6)(c6ccc(Cl)cc6Cl)O5)cc4)CC3)cc2)c1=O` (stereo not shown) [Itraconazole, reference compound]: the MIC in the data set with A. niger amounted to 0.39 µg/mL (≈ 0.553 µM); against C. glabrata, 0.19 µg/mL (≈ 0.269 µM); with C. tropicalis, 0.09 µg/mL (≈ 0.128 µM); in the data set on C. krusei, 0.39 µg/mL (≈ 0.553 µM); in the data set with Candida albicans, 0.09 µg/mL (≈ 0.128 µM); in the data set on Saccheromyces cerevisiae (setting [3]), 0.39 µg/mL (≈ 0.553 µM). Besides, the MIC came to 0.19 µg/mL (≈ 0.269 µM) with Aspergillus fumigatus, 0.39 µg/mL (≈ 0.553 µM) against Cryptococcus neoformans, 0.19 µg/mL (≈ 0.269 µM) in the data set on C. guilliermondii and 0.09 µg/mL (≈ 0.128 µM) in the data set with C. kefyr. For the same molecule, in data set [1], the bioavailability entry is reported as “less bioavailability”. Besides, the protein binding entry in data set [2] is recorded as “high protein binding”. In the data set on filamentous fungi, the “activity against filamentous fungi” value is listed as “active against filamentous fungi”.

Take `CCC(C)n1ncn(-c2ccc(N3CCN([C@H](C)[C@](O)(Cn4cncn4)c4ccc(F)cc4F)CC3)cc2)c1=O` (stereo partly drawn) [Example 40, (2R,3R)-3-[4-{4-[2-(2-Butyl)-2H-1,2,4-triazol-3-one-4-yl]phenyl}piperazin-1-yl]2-(2,4-difluorophenyl)-1-(1H-1,2,4-triazol-1-yl)butan-2-ol]: the MIC turned out to be 0.78 µg/mL (≈ 1.41 µM) with A. niger; 0.39 µg/mL (≈ 0.706 µM) against C. glabrata; 0.048 µg/mL (≈ 0.0869 µM) in the data set on C. tropicalis; 0.19 µg/mL (≈ 0.344 µM) against C. krusei; 0.09 µg/mL (≈ 0.163 µM) in the data set with Candida albicans; 0.09 µg/mL (≈ 0.163 µM) with Saccheromyces cerevisiae (setting [3]). Further, the MIC against Aspergillus fumigatus was 0.39 µg/mL (≈ 0.706 µM); against Cryptococcus neoformans, 0.48 µg/mL (≈ 0.869 µM); against C. guilliermondii, 0.048 µg/mL (≈ 0.0869 µM); in the data set on C. kefyr it was 0.048 µg/mL (≈ 0.0869 µM). In addition, the ED50 in the data set with A. fumigatus stood at 67 mg/kg; with C. albicans, 4.68 mg/kg.

As to `CC(C)n1ncn(-c2ccc(N3CCN([C@H](C)[C@](O)(Cn4cncn4)c4ccc(F)cc4F)CC3)cc2)c1=O` [Example 41, (2R,3R)-2-(2,4-Difluorophenyl)-3-[4-{4-[2-(2-propyl)-2H-1,2,4-triazol-3-one-4-yl]phenyl}piperazin-1-yl]-1-(1H-1,2,4-triazol-1-yl)butan-2-ol], the MIC against A. niger turned out to be 3.12 µg/mL (≈ 5.79 µM); in the data set with C. glabrata, 0.78 µg/mL (≈ 1.45 µM); in the data set on C. tropicalis it was 0.09 µg/mL (≈ 0.167 µM); against C. krusei it was 1.56 µg/mL (≈ 2.9 µM); against Candida albicans, 0.09 µg/mL (≈ 0.167 µM); with Saccheromyces cerevisiae (setting [3]), 0.19 µg/mL (≈ 0.353 µM). Also, the MIC came out at 0.78 µg/mL (≈ 1.45 µM) in the data set with Aspergillus fumigatus, 0.48 µg/mL (≈ 0.891 µM) in the data set on Cryptococcus neoformans, 0.048 µg/mL (≈ 0.0891 µM) against C. guilliermondii and 0.48 µg/mL (≈ 0.891 µM) in the data set with C. kefyr. The 50% effective dose (ED50) in the data set with A. fumigatus came out at 89.3 mg/kg; with C. albicans, 8.01 mg/kg.

As for `OC(Cn1cncn1)(Cn1cncn1)c1ccc(F)cc1F` [Fluconazole, reference compound], the MIC was greater than 100 µg/mL against A. niger; 12.5 µg/mL (≈ 40.8 µM) with C. glabrata; 0.39 µg/mL (≈ 1.27 µM) against C. tropicalis; 50 µg/mL (≈ 163 µM) with C. krusei; 0.78 µg/mL (≈ 2.55 µM) in the data set on Candida albicans; 6.25 µg/mL (≈ 20.4 µM) in the data set on Saccheromyces cerevisiae (48 h). Also, the MIC is greater than 100 µg/mL with Aspergillus fumigatus, 1.56 µg/mL (≈ 5.09 µM) with Cryptococcus neoformans, 1.56 µg/mL (≈ 5.09 µM) against C. guilliermondii and 0.39 µg/mL (≈ 1.27 µM) against C. kefyr. Besides, in the data set with filamentous fungi, the “activity against filamentous fungi” value is “not active against filamentous fungi”.

For the molecule `C[C@@H](N1CCN(c2ccc(-n3cnn(Cc4ccc(C(F)(F)F)cc4)c3=O)cc2)CC1)[C@](O)(Cn1cncn1)c1ccc(F)cc1F` [Example 43], the MIC against A. niger was determined as 0.19 µg/mL (≈ 0.29 µM); in the data set with C. glabrata, 0.78 µg/mL (≈ 1.19 µM); against C. tropicalis, 0.048 µg/mL (≈ 0.0733 µM); with C. krusei, 0.09 µg/mL (≈ 0.137 µM); against Candida albicans, 0.048 µg/mL (≈ 0.0733 µM); with Saccheromyces cerevisiae (setting [3]), 0.09 µg/mL (≈ 0.137 µM). The MIC against Aspergillus fumigatus worked out at 0.19 µg/mL (≈ 0.29 µM); in the data set with Cryptococcus neoformans, 0.048 µg/mL (≈ 0.0733 µM); in the data set with C. guilliermondii it was 0.09 µg/mL (≈ 0.137 µM); with C. kefyr, 0.048 µg/mL (≈ 0.0733 µM). Besides, the ED50 in the data set on A. fumigatus worked out at 42.3 mg/kg; in the data set with C. albicans it was 1.57 mg/kg.

As for `C[C@@H](N1CCN(c2ccc(-n3cnn(CC(F)(F)C(F)F)c3=O)cc2)CC1)[C@](O)(Cn1cncn1)c1ccc(F)cc1F` [Example 44], the MIC with A. niger was 0.19 µg/mL (≈ 0.311 µM); against C. glabrata, 1.56 µg/mL (≈ 2.56 µM); with C. tropicalis, 0.048 µg/mL (≈ 0.0786 µM); against C. krusei, 0.09 µg/mL (≈ 0.147 µM); against Candida albicans, 0.048 µg/mL (≈ 0.0786 µM); with Saccheromyces cerevisiae (setting [3]) it was 0.048 µg/mL (≈ 0.0786 µM). Also, the MIC against Aspergillus fumigatus, in the data set on Cryptococcus neoformans, in the data set with C. guilliermondii and with C. kefyr was 0.048 µg/mL (≈ 0.0786 µM) in each case.

(Values after US6153616A, “Triazoles as therapeutic agents for fungal infections” (Synphar Laboratories, Inc., priority 1998, dated 2000).)
